Measurements: patent US20030187044A1, “Medicament” (SmithKline Beecham p.l.c., priority 1990, published 2003)

| melting point [°C] | Compound |
| --- | --- |
| 254 to 255 | CCCCc1nc2cc(Br)cc(C(=O)O)c2n1Cc1ccccc1Cl [Example 4, 5-Bromo-2-n-butyl-1-(2-chlorophenyl)methyl-1H -benzimidazole-7-carboxylic Acid] |
| 178 to 181 | CCCSc1ncc(C[C@H](NC(=O)CCC)C(=O)O)n1Cc1ccccc1Cl [Example 1, 3-[(2-Chlorophenyl)methyl]-2-propylthio-N -butyrylhistidine] |
